Test results from ChEMBL document CHEMBL4422694, “α-Glucosidase Inhibitory Flavonoids and Oxepinones from the Leaf and Twig Extracts of Desmos cochinchinensis” (J Nat Prod, 2019).

Key:
Saccharomyces cerevisiae = test: Inhibition of Saccharomyces cerevisiae alpha-glucosidase at 200 ug/mL using p-nitrophenyl alpha-D-glucoside as substrate by colorimetric assay
[1] = Inhibition of Saccharomyces cerevisiae alpha-glucosidase using p-nitrophenyl alpha-D-glucoside as substrate by colorimetric assay

| Compound | inhibition (Saccharomyces cerevisiae) [%] | IC50 [1] [µM] |
| --- | --- | --- |
| O=C1C[C@@H](c2ccccc2)Oc2c(Cc3ccccc3O)c(O)c(Cc3ccccc3O)c(O)c21 [DICHAMANETIN] | 99.1 | 0.2 |
| CC(=O)O[C@@H]1C=COC=C(COC(=O)c2ccccc2)C1=O | 95.5 | 3.6 |
| O=C1C[C@@H](c2ccccc2)Oc2cc(O)c(Cc3ccccc3O)c(O)c21 [ISOCHAMANETIN] | 93.2 | 2.9 |
| O=C(OCc1ccccc1O)c1ccccc1 | 97.5 | 4.3 |
| C[C@H]1O[C@H](O[C@H]2[C@H](O)[C@@H](O)[C@@H](O[C@H]3[C@H](O)[C@@H](O)C(O)O[C@@H]3CO)O[C@@H]2CO)[C@H](O)[C@@H](O)[C@@H]1N[C@H]1C=C(CO)[C@@H](O)[C@H](O)[C@H]1O (some centres undefined) [ACARBOSE] | – | 171 |
| O=c1cc(-c2ccccc2)oc2c(Cc3cccc(O)c3O)c(O)cc(O)c12 | 96.1 | 0.9 |

More lines, in order of falling IC50 [1], values ahead:

| inhibition (Saccharomyces cerevisiae) [%] | IC50 [1] [µM] | Compound |
| --- | --- | --- |
| 90.9 | 158 | COc1cc(O)c2c(=O)cc(-c3ccccc3)oc2c1 [TECHTOCHRYSIN] |
| 94 | 139 | CC(=O)OC/C=C\C=C(/CO)COC(=O)c1ccccc1 |
| 98.7 | 71.7 | O=C(OC[C@@]1(O)C(=O)C=C[C@@H](OC(=O)c2ccccc2)[C@@H]1O)c1ccccc1 |
| 99.1 | 40.7 | CC(=O)OC/C=C\C=C(/COC(C)=O)COC(=O)c1ccccc1 |
| 95.4 | 4.9 | O=c1cc(-c2ccccc2)oc2cc(O)cc(O)c12 [CHRYSIN] |
| 92.1 | 4.9 | CC(=O)O[C@@H]1C=COC=C(CO)C1=O |
| 97.7 | 4.3 | O=C1C[C@@H](c2ccccc2)Oc2cc(O)cc(O)c21 [PINOCEMBRIN] |
| 98.2 | 3.1 | CC(=O)O[C@H]1C(=O)C=COC=C1COC(=O)c1ccccc1 [GRANDIUVARONE A] |
| 95.8 | 0.9 | O=c1cc(-c2ccccc2)oc2c(Cc3cc(O)ccc3O)c(O)cc(O)c12 |
